From a melting point compilation (Tetko et al.; mined from patent text by program, amines drawn as free bases though some values may be those of a salt)

Row | Compound | melting point
1 | CCOC(=O)C=C1CCc2c(c(OC)c(OC)c(OC)c2OC)CC1 | 61 to 63 °C
2 | Nc1ccc(C(=O)NNCCC(=O)OCc2ccccc2)cc1 | 96 to 97 °C
3 | CCCCCCCCc1ccc(CCC(N)(CO)CO)cc1 | 103 to 105 °C
4 | COc1ccc(OC)c(-c2cccc3c2OC(CN)C3)c1 (centres undefined) | 128 to 132 °C
5 | CCOc1cccc(NC(=O)NS(=O)(=O)c2ccc(C)cc2)n1 | 197 to 199 °C
6 | COC(=O)c1c(OCc2ccc(-c3ccccc3-c3nnn[nH]3)cc2)cc(C)nc1Cl | 204 to 207 °C
7 | CCOCCn1c(N2CCCN(CCC3(c4ccc(Cl)cc4)CCN(C(=O)c4cc(OC)c(OC)c(OC)c4)C3)CC2)nc2ccccc21 (centres undefined) | 74 to 81 °C
8 | COc1cccc(OC(c2ccccc2)C(O)C(=O)NC(C)C)c1 (centres undefined) | 118 to 120 °C
9 | NS(=O)(=O)c1cc2[nH]c(S)nc2cc1Cl | 341 to 343 °C
10 | Cc1c(C)c2c(c(C)c1NC(=O)c1ccc(Cl)cc1)C(c1ccc(C(C)C)cc1)C1(CCN(C)CC1)O2 (centres undefined) | 293 to 295 °C
11 | N#Cc1cc(Cl)ccc1Oc1cccc(O)c1 | 118 to 120 °C
12 | CC(C)NOP(=O)(O)C(C(C)C)N(CC(=O)OCCCl)C(=O)C(F)(F)F (centres undefined) | 87.5 to 89 °C
13 | CCCCc1nc2c(N)nc3ccccc3c2o1 | 96 to 98 °C
14 | CCOC(=O)c1c(C)cc2nc(CO)n(-c3ccc4c(c3)OCO4)c(=O)c2c1C | 159 to 161 °C
15 | CCCCCc1ccc(-c2ncc(C#N)cn2)cc1 | 96 to 96.2 °C
16 | COc1c2c(c(C3CCCCC3)c3c4c(ccc13)OCO4)CNC2=O | 244 to 246 °C
17 | c1coc(-c2nc(COc3ccc(CCCn4ccnc4)cc3)co2)c1 | 92 to 93 °C
18 | CCOC(=O)CC1CCc2ccc(COc3ccc(C#N)cc3)cc2C1 (centres undefined) | 51 to 52 °C
19 | Nc1ccc2cccc(Nc3cc(-c4ccc(C(F)(F)F)cc4)ncn3)c2n1 | 211 to 213 °C
20 | COCn1nc(Nc2cnccn2)c2cc(-c3ncccc3Cl)cc(OCCc3ccccn3)c21 | 120 to 122 °C
21 | C1=C(c2ccccc2)CCN(Cc2c[nH]c3ncccc23)C1 | 177 to 179 °C
22 | O=C(c1ccncc1)[N+]1([O-])CCN(C2c3ccc(Cl)cc3OCc3cccnc32)CC1 (centres undefined) | 206 to 208 °C
23 | Nc1cccc(-c2ccc(CCN3CCN(C(=O)c4ccccc4)CC3)cc2)n1 | 125 to 127 °C
24 | O=C(O)Cc1cccc2c(-c3ccc(F)cc3)nccc12 | 214 to 216 °C
25 | CC(C)(CCC#N)c1ccc(C(=O)Nc2cn3cc(Cl)ccc3n2)cc1 | 198 to 199 °C

Row | Compound | melting point
26 | Cc1cc2[nH]c(=O)ccc2c(Br)n1 | 276 to 278 °C
27 | CCOC(=O)c1nccn1C1Cc2ccccc2C1=O (centres undefined) | 116 °C
28 | CC(C)(C)OC(=O)N1CCN(c2ccc3ncc(Br)n3n2)CC1 | 176 to 179 °C
29 | O=c1c2c(Cc3ccc(OC(F)(F)F)cc3)n[nH]c2c2cccnc2n1-c1cccc(OC(F)(F)F)c1 | 129 to 132 °C
30 | CCOC(=O)C(Cc1ccc(OCCN2CCC(C)(C)c3cc(C(=NOC)c4ccccc4)ccc32)cc1)Nc1ccccc1C(=O)c1ccccc1 (centres undefined) | 78 to 80 °C
31 | CNS(=O)(=O)c1cscc1CCl | 75 to 76 °C
32 | O=C(NS(=O)(=O)c1ccccc1)c1ccc(C=CC(=O)N2CCc3c([nH]c4ccccc34)C2c2ccc3c(c2)OCO3)cc1 (centres undefined) | 134 °C
33 | Nc1ccc(C#Cc2c(F)c(F)nc(F)c2F)cc1 | 164 to 165 °C
34 | CC(C)C[C@H](NC(=O)OCc1ccccc1)C(=O)N[C@@H](Cc1ccccc1)C(=O)CN(C)C | 81 to 82 °C
35 | CC(Cn1ncnn1)n1nnc2cc3c(=O)n(CC#N)nnc3cc2c1=O (centres undefined) | 209 to 212 °C
36 | CC(C)(C)[C@H]1CC[C@@H](Nc2nnc(CCc3cccnc3)c3ccccc23)CC1 | 155 to 157 °C
37 | COC(=O)[C@H](Cc1c[nH]c2ccccc12)NC(=O)CCC(=O)[C@H](Cc1ccccc1)NC(=O)c1ccccc1 | 88 to 90 °C
38 | O=C(Nc1ccc2c(c1)OC(F)(F)O2)N1CC(c2ccc(Cl)cc2)=C(c2ccc(Cl)cc2)N1 | 150 to 155 °C
39 | CCCCn1c2ccc(C#N)cc2c2cc(C#N)ccc21 | 215 to 217 °C
40 | BrCCCCCc1nnnn1C1CCCCC1 | 57 to 59 °C
41 | CCOC(=O)NC1CCN(c2ncnc3cc(OC)c(OC)cc23)CC1 | 179 to 181 °C
42 | O=C(O)c1cc2c3c(c1)CCCC3CCC2 | 208 to 209 °C
43 | CCOC(=O)C1=C(C)NC(C)=C(C(=O)OC)C1c1cccc(N)c1 (single isomer, unassigned; (-)) | 173 to 175 °C
44 | O=[N+]([O-])c1ccc(C(O)C(COc2ccccc2)N2CCC(Cc3ccccc3)CC2)cc1 (centres undefined) | 159 to 162 °C
45 | CC(=O)N(C)Cc1ccc(F)cc1 | 48 to 54 °C
46 | CCCCCCCCCCCCNC(=O)OCc1ccc(OC(C)=O)c(OC)c1 | 54 to 56 °C
47 | CCOCC1COc2cc(C(=O)O)c(N)cc2O1 (centres undefined) | 124 to 130 °C
48 | CNc1nc(Nc2ccc(CCNC(=O)OC(C)(C)C)cc2)ncc1[N+](=O)[O-] | 70 to 71 °C
49 | CCNC(=O)c1cc(NS(=O)(=O)c2ccc(C(F)(F)F)cn2)ccc1Oc1cncc(Cl)c1 | 147 to 148 °C
